Reference: patent US11707454B2, “Topical roflumilast formulation having antifungal properties” (ARCUTIS BIOTHERAPEUTICS, INC., priority 2020, dated 2023)
Like-named read-outs stand apart in the source and are kept apart here.

What was measured:
Type in all cases: cell-based
C. albicans (ATCC 90028) = assay: in vitro micro-dilution susceptibility assay (method of Rojas); details: Candida albicans, read-out: minimum inhibition concentration (MIC)
Description: (§1) The in vitro susceptibility of Malassezia species to roflumilast was determined utilizing three Candida species as internal control isolates for all testing. These three isolates were C. albicans American Type Culture Collection (ATCC) 90028, C. krusei (ATCC 6258) and C. parapsilosis (ATCC 22019). In addition to testing roflumilast all susceptibility assays were conducted using ketoconazole and hydrocortisone as positive and negative control compounds, respectively. All assays were placed within a humidified incubator set to 32° C. for a total of seven days. Each assay was evaluated after 12 hours of incubation and, every 24 hours post incubation for a total of seven days. The assays were evaluated for visual growth of each pathogen in the no treatment control as well as determination of minimum inhibition concentration (MIC) values. The concentration that provides a 3-log10 CFU/mL reduction in fungal burden from baseline at day 0 was defined as the minimum fungicidal concentration (MHC) and was determined by quantifying fungal burdens found in the microplate at day seven.
(§2) The method of Rojas (Rojas F D, et al. Antifungal susceptibility of Malassezia furfur, Malassezia sympodialis, and Malassezia globose to azole drugs and amphotericin B evaluated using a broth microdilution method. 2014. Medical Mycology. 52:641-646) was used in which the liquid broth medium was RPMI 1640 with added 1.8% glucose, 1% peptone, 0.5% ox-bile, 0.5% malt extract, 1% glycerol, 0.5% Tween 40 and 0.05% Tween 80. Round bottom 96 well microplates were used. The inoculums were prepared in sterile saline and diluted to a final targeted concentration of 0.5×10^5 to 2.5×10^5 CFU/mL in supplemented RPMI. […] For the internal control isolate C. parapsilosis (ATCC 22019) the expected CLSI values for ketoconazole of 0.03-0.25 (at 24 hours) and 0.06-0.5 (at 48 hours) did agree with the 2-day value (Table A) of 0.5.

C. krusei (ATCC 6258) = assay: as above; details: Pichia kudriavzevii, read-out: minimum inhibition concentration (MIC)
Description: as §1, §2

[1] = system: C. parapsilosis (ATCC 22019); assay: as above; details: Lodderomyces parapsilosis, C. parapsilosis (22019), read-out: minimum inhibition concentration (MIC)
Description: as §1, §2

M. furfur (ATCC 12078) = assay: as above; details: for MIC: Malassezia furfur, read-out: minimum inhibition concentration (MIC)
Description: as §1, §2

M. furfur (ATCC 14521) = assay: as above; details: for MIC: Malassezia furfur, read-out: minimum inhibition concentration (MIC)
Description: as §1, §2

M. furfur (ATCC 44344) = assay: as above; details: for MIC: Malassezia furfur, read-out: minimum inhibition concentration (MIC)
Description: as §1, §2

[2] = system: M. globose (ATCC MYA-4889); assay: as above; details: for MIC: read-out: minimum inhibition concentration (MIC)
Description: as §1, §2

[3] = system: M. restricta (ATCC MYA-4611); assay: as above; details: for MIC: read-out: minimum inhibition concentration (MIC)
Description: as §1, §2

[4] = system: Malassezia species and Candida species; assay: in vitro micro-dilution susceptibility assay, summary over all isolates; details: negative control
Description: as §1, with “seven. […]” for “seven.”

Q: Which MIC (C. albicans (ATCC 90028); ATCC90028, 12 h, Time 0.5 days) does the source give for `C[C@]12CCC(=O)C=C1CC[C@@H]1[C@@H]2[C@@H](O)C[C@@]2(C)[C@H]1CC[C@]2(O)C(=O)CO` [Hydrocortisone] here?
A: Its MIC is greater than 1020 µg/mL.

Q: What about the MIC (C. albicans (ATCC 90028); ATCC90028, 24 h, Time 1 days) of the same compound?
A: Its MIC is greater than 1020 µg/mL.

Q: What about the MIC (C. albicans (ATCC 90028); ATCC90028, 48 h, Time 2 days) of the same compound?
A: The MIC was greater than 1020 µg/mL.

Q: And the MIC (C. albicans (ATCC 90028); ATCC90028, 72 h, Time 3 days)?
A: Its MIC is greater than 1020 µg/mL.

Q: What about the MIC (C. albicans (ATCC 90028); ATCC90028, 96 h, Time 4 days) of the same compound?
A: The MIC was greater than 1020 µg/mL.

Q: And the MIC (C. albicans (ATCC 90028); ATCC90028, 120 h, Time 5 days)?
A: Its MIC is greater than 1020 µg/mL.

Q: What about the MIC (C. albicans (ATCC 90028); ATCC90028, 144 h, Time 6 days) of the same compound?
A: The MIC was greater than 1020 µg/mL.

Q: What about the MIC (C. albicans (ATCC 90028); ATCC90028, 168 h, Time 7 days) of the same compound?
A: The MIC was greater than 1020 µg/mL.

Q: And the MIC (C. krusei (ATCC 6258); ATCC6258, 12 h, Time 0.5 days)?
A: The MIC was greater than 1020 µg/mL.

Q: What about the MIC (C. krusei (ATCC 6258); ATCC6258, 24 h, Time 1 days) of the same compound?
A: Its MIC is greater than 1020 µg/mL.

Q: And the MIC (C. krusei (ATCC 6258); ATCC6258, 48 h, Time 2 days)?
A: Its MIC is greater than 1020 µg/mL.

Q: What about the MIC (C. krusei (ATCC 6258); ATCC6258, 72 h, Time 3 days) of the same compound?
A: Its MIC is greater than 1020 µg/mL.

Q: What about the MIC (C. krusei (ATCC 6258); ATCC6258, 96 h, Time 4 days) of the same compound?
A: The MIC was greater than 1020 µg/mL.

Q: What about the MIC (C. krusei (ATCC 6258); ATCC6258, 120 h, Time 5 days) of the same compound?
A: The MIC was greater than 1020 µg/mL.

Q: What about the MIC (C. krusei (ATCC 6258); ATCC6258, 144 h, Time 6 days) of the same compound?
A: The MIC was greater than 1020 µg/mL.

Q: And the MIC (C. krusei (ATCC 6258); ATCC6258, 168 h, Time 7 days)?
A: Its MIC is greater than 1020 µg/mL.

Q: And the MIC ([1]; ATCC22019, 12 h, Time 0.5 days)?
A: The MIC was greater than 1020 µg/mL.

Q: What about the MIC ([1]; ATCC22019, 24 h, Time 1 days) of the same compound?
A: The MIC was greater than 1020 µg/mL.

Q: And the MIC ([1]; ATCC22019, 48 h, Time 2 days)?
A: Its MIC is greater than 1020 µg/mL.

Q: And the MIC ([1]; ATCC22019, 72 h, Time 3 days)?
A: The MIC was greater than 1020 µg/mL.

Q: And the MIC ([1]; ATCC22019, 96 h, Time 4 days)?
A: Its MIC is greater than 1020 µg/mL.

Q: And the MIC ([1]; ATCC22019, 120 h, Time 5 days)?
A: Its MIC is greater than 1020 µg/mL.

Q: And the MIC ([1]; ATCC22019, 144 h, Time 6 days)?
A: The MIC was greater than 1020 µg/mL.

Q: And the MIC ([1]; ATCC22019, 168 h, Time 7 days)?
A: Its MIC is greater than 1020 µg/mL.

Q: And the MIC (M. furfur (ATCC 12078); ATCC12078, 48 h, Time 2 days)?
A: The MIC was greater than 1020 µg/mL.

Q: And the MIC (M. furfur (ATCC 12078); ATCC12078, 72 h, Time 3 days)?
A: Its MIC is greater than 1020 µg/mL.

Q: And the MIC (M. furfur (ATCC 12078); ATCC12078, 96 h, Time 4 days)?
A: Its MIC is greater than 1020 µg/mL.

Q: And the MIC (M. furfur (ATCC 12078); ATCC12078, 120 h, Time 5 days)?
A: Its MIC is greater than 1020 µg/mL.

Q: And the MIC (M. furfur (ATCC 12078); ATCC12078, 144 h, Time 6 days)?
A: Its MIC is greater than 1020 µg/mL.

Q: And the MIC (M. furfur (ATCC 12078); ATCC12078, 168 h, Time 7 days)?
A: Its MIC is greater than 1020 µg/mL.

Q: What about the “minimum inhibition concentration (MIC)” value (M. furfur (ATCC 12078); Time 0.5 days) of the same compound?
A: Its value is “NGO”.

Q: What about the “minimum inhibition concentration (MIC)” value (M. furfur (ATCC 12078); Time 1 days) of the same compound?
A: The value was “NGO”.

Q: What about the MIC (M. furfur (ATCC 14521); ATCC14521, 48 h, Time 2 days) of the same compound?
A: Its MIC is greater than 1020 µg/mL.

Q: And the MIC (M. furfur (ATCC 14521); ATCC14521, 72 h, Time 3 days)?
A: Its MIC is greater than 1020 µg/mL.

Q: What about the MIC (M. furfur (ATCC 14521); ATCC14521, 96 h, Time 4 days) of the same compound?
A: The MIC was greater than 1020 µg/mL.

Q: What about the MIC (M. furfur (ATCC 14521); ATCC14521, 120 h, Time 5 days) of the same compound?
A: The MIC was greater than 1020 µg/mL.

Q: What about the MIC (M. furfur (ATCC 14521); ATCC14521, 144 h, Time 6 days) of the same compound?
A: The MIC was greater than 1020 µg/mL.

Q: And the MIC (M. furfur (ATCC 14521); ATCC14521, 168 h, Time 7 days)?
A: Its MIC is greater than 1020 µg/mL.

Q: And the “minimum inhibition concentration (MIC)” value (M. furfur (ATCC 14521); Time 0.5 days)?
A: Its value is “NGO”.

Q: And the “minimum inhibition concentration (MIC)” value (M. furfur (ATCC 14521); Time 1 days)?
A: The value was “NGO”.

Q: What about the MIC (M. furfur (ATCC 44344); ATCC44344, 48 h, Time 2 days) of the same compound?
A: Its MIC is greater than 1020 µg/mL.

Q: What about the MIC (M. furfur (ATCC 44344); ATCC44344, 72 h, Time 3 days) of the same compound?
A: Its MIC is greater than 1020 µg/mL.

Q: What about the MIC (M. furfur (ATCC 44344); ATCC44344, 96 h, Time 4 days) of the same compound?
A: Its MIC is greater than 1020 µg/mL.

Q: What about the MIC (M. furfur (ATCC 44344); ATCC44344, 120 h, Time 5 days) of the same compound?
A: The MIC was greater than 1020 µg/mL.

Q: What about the MIC (M. furfur (ATCC 44344); ATCC44344, 144 h, Time 6 days) of the same compound?
A: Its MIC is greater than 1020 µg/mL.

Q: And the MIC (M. furfur (ATCC 44344); ATCC44344, 168 h, Time 7 days)?
A: Its MIC is greater than 1020 µg/mL.

Q: And the “minimum inhibition concentration (MIC)” value (M. furfur (ATCC 44344); Time 0.5 days)?
A: The value was “NGO”.

Q: What about the “minimum inhibition concentration (MIC)” value (M. furfur (ATCC 44344); Time 1 days) of the same compound?
A: The value was “NGO”.

Q: And the MIC ([2]; 120 h, Time 5 days)?
A: Its MIC is greater than 1020 µg/mL.

Q: And the MIC ([2]; 144 h, Time 6 days)?
A: The MIC was greater than 1020 µg/mL.

Q: What about the MIC ([2]; 168 h, Time 7 days) of the same compound?
A: Its MIC is greater than 1020 µg/mL.

Q: And the “minimum inhibition concentration (MIC)” value ([2]; Time 0.5 days)?
A: The value was “NGO”.

Q: What about the “minimum inhibition concentration (MIC)” value ([2]; Time 1 days) of the same compound?
A: Its value is “NGO”.

Q: And the “minimum inhibition concentration (MIC)” value ([2]; Time 2 days)?
A: The value was “NGO”.

Q: And the “minimum inhibition concentration (MIC)” value ([2]; Time 3 days)?
A: Its value is “NGO”.

Q: What about the “minimum inhibition concentration (MIC)” value ([2]; Time 4 days) of the same compound?
A: The value was “NGO”.

Q: And the MIC ([3]; 120 h, Time 5 days)?
A: The MIC was greater than 1020 µg/mL.

Q: And the MIC ([3]; 144 h, Time 6 days)?
A: Its MIC is greater than 1020 µg/mL.

Q: What about the MIC ([3]; 168 h, Time 7 days) of the same compound?
A: The MIC was greater than 1020 µg/mL.

Q: What about the “minimum inhibition concentration (MIC)” value ([3]; Time 0.5 days) of the same compound?
A: The value was “NGO”.

Q: What about the “minimum inhibition concentration (MIC)” value ([3]; Time 1 days) of the same compound?
A: The value was “NGO”.

Q: What about the “minimum inhibition concentration (MIC)” value ([3]; Time 2 days) of the same compound?
A: The value was “NGO”.

Q: What about the “minimum inhibition concentration (MIC)” value ([3]; Time 3 days) of the same compound?
A: Its value is “NGO”.

Q: What about the “minimum inhibition concentration (MIC)” value ([3]; Time 4 days) of the same compound?
A: Its value is “NGO”.

Q: What about the “anti-fungal activity (all isolates)” value [4] of the same compound?
A: The value was “no anti-fungal activity”.
